The values that follow are results of earlier work, collected in patent publication EP3958980B1, “TARGETED NOVEL TRIAZOLOTHIADIAZINE DERIVATIVES FOR THE TREATMENT OF LUNG CANCER” (Anadolu Universitesi, priority 2020, dated 2021).

As usually defined, the GI50 is the concentration at which growth is held to half of that of the control. The IC50 is the concentration that inhibits the measured activity by half. Broadly, the inhibition is how much of the control response was suppressed.

Series [1] deals with leukemia (MOLT-4) cell line. Conditions: cited from earlier work.
For series [2], the system named is kidney cancer (OU-31) cell line. Also on record: concentration or dose not given beside the values. Particulars: cited from earlier work.
For series [3], the system named is 60 cell lines formed of leukemia, NSCLC, melanoma, prostate, ovarian and breast cancers. Particulars: against all cancer cells; cited from earlier work.
The subject of series [4] is kidney fibroblast (BHK-21) and lung carcinoma (H-157) cell lines. Conditions: highest cytotoxic activity; cell line not stated; cited from earlier work.
In another series the test system is lung cancer (H157) cells. Particulars: cited from earlier work.
Series [5] deals with human colon epithelial (HT-29) cells. Conditions: cited from earlier work.
Series [6] deals with kidney fibroblast (BHK-21) cells. Conditions: cited from earlier work.

On to `O=C(CSc1nnc2n1N=C(c1ccc(Cl)cc1)CS2)c1ccc(F)cc1` [2-((6-(4-Chlorophenyl)-7H-[1,2,4]triazolo[3,4-b][1,3,4]thiadiazine-3-yl)thio-1-(4-fluorophenyl)ethanone], for which the growth was 49.82% in series [1] and 48.14% in series [2].

As for `Fc1cc(-c2nnc3n2N=C(c2ccc(Cl)cc2)CS3)c(Cl)cc1Cl` [3-(2,4-Dichloro-5-fluorophenyl)-6-(4-chlorophenyl)-1,2,4-triazolo[3,4-b]-1,3,4-thiadiazine], the GI50 in series [3] was 1060 to 25400 nM.

As for `O=c1oc2ccccc2cc1-c1nnc2n1N=C(c1ccc(-c3ccccc3)cc1)CS2` [3-(6-(Biphenyl-4-yl)-7H-[1,2,4]triazolo[3,4-b][1,3,4]-thiadiazine-3-yl)-2H-chromene-2-one], the IC50 in series [4] is 1010 ± 120 nM.

In the case of `Clc1ccc(C2=Nn3c(nnc3-c3cccnc3)SC2)cc1Cl` [6-(3,4-Dichlorophenyl)-3-(pyridine-3-yl)-7H-[1,2,4]triazolo[3,4-b][1,3,4]thiadiazine], in the series with lung cancer (H157) cells, the IC50 is 960 ± 430 nM.

Consider `CS(=O)(=O)c1ccc(Cc2nnc3n2N=C(c2ccc(-c4ccccc4)cc2)CS3)cc1` [6-(biphenyl-4-yl)-3-(4-(methylsulfonyl)benzyl)-7H-[1,2,4]triazolo[3,4-b][1,3,4]thiadiazine], for which, in series [5], the IC50 is 12500 nM.

As for `CC[C@]1(O)C[C@H]2CN(CCc3c([nH]c4ccccc34)[C@@](C(=O)OC)(c3cc4c(cc3OC)N(C=O)[C@H]3[C@@](O)(C(=O)OC)[C@H](OC(C)=O)[C@]5(CC)C=CCN6CC[C@]43[C@@H]65)C2)C1` [vincristine], the inhibition in series [6] is recorded as 74.5%. Besides, in the series on lung cancer (H157) cells, the IC50 is 1030 ± 40 nM.
